Laboratory results reported in ChEMBL document CHEMBL1149088, “A non-peptide NK1 receptor agonist showing subpicomolar affinity” (J Med Chem, 2004).

How the values were obtained:
Substance-P receptor [1] = target: T1, Substance-P receptor (Homo sapiens, UniProt P25103); assay: Binding affinity against human Tachykinin receptor 1 expressed in astrocytoma UC11MG cells using [125I]- SP radioligand; assay type: cell-based
Substance-P receptor [2] = target: T1, Substance-P receptor; conditions: UC11MG
Substance-P receptor [3] = target: T1, Substance-P receptor; assay: Inhibition of labeled SP total binding against human Tachykinin receptor 1 expressed in astrocytoma UC11MG cells by the second binding component; assay type: cell-based
Endothelial cell [4] = assay: Concentration required to produce cyclic GMP levels in postcapillary endothelial cells isolated from bovine heart (CVEC); assay type: functional, cell-based; conditions: Bos taurus
Endothelial cell [5] = assay: Concentration required to produce maximum stimulation in tritiated inositol monophosphate (IP1) level in postcapillary endothelial cells isolated from bovine heart (CVEC); assay type: functional, cell-based; conditions: Bos taurus
Endothelial cell [6] = assay: Concentration required to produce maximum effect on postcapillary endothelial cells isolated from bovine heart (CVEC) proliferation; assay type: functional, cell-based; conditions: Bos taurus

T1 sequence (P25103 whole entry): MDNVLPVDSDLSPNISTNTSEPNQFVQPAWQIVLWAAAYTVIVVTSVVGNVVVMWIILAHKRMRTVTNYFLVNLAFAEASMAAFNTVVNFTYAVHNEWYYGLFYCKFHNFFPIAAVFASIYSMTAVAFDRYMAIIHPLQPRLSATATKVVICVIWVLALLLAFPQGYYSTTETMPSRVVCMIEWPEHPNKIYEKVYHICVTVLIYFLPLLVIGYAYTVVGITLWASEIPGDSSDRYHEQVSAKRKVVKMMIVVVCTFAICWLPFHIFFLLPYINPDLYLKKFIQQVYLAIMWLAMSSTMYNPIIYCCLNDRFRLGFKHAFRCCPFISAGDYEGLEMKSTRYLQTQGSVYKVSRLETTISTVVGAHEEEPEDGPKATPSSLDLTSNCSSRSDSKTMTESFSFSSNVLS

| IC50 (Substance-P receptor [1]) | Binding (Substance-P receptor [2]) | Compound | other results |
| --- | --- | --- | --- |
| 0.03 nM | 83% | CN(Cc1cc(C(F)(F)F)cc(C(F)(F)F)c1)C(=O)c1cnc2ccccc2c1-c1ccccc1 | – |
| > 1000 nM | – | CN1CCN(Cc2nc3ccccc3c(-c3ccccc3)c2C(=O)NCc2cc(C(F)(F)F)cc(C(F)(F)F)c2)CC1 | – |
| 26 nM | 57% | O=C(NCc1cc(C(F)(F)F)cc(C(F)(F)F)c1)c1c(CCl)nc2ccccc2c1-c1ccccc1 | – |
| 3.1 nM | 73% | Cc1nc2ccccc2c(-c2ccccc2)c1C(=O)N(C)Cc1cc(C(F)(F)F)cc(C(F)(F)F)c1 | – |
| 0.075 nM | 78% | Cc1nc2ccccc2c(-c2ccccc2)c1C(=O)NCc1cc(C(F)(F)F)cc(C(F)(F)F)c1 | IC50 (Substance-P receptor [3]): 3900 nM |
| 0.22 nM | 40% | CN(C)Cc1nc2ccccc2c(-c2ccccc2)c1C(=O)NCc1cc(C(F)(F)F)cc(C(F)(F)F)c1 | IC50 (Substance-P receptor [3]): 11 nM |
| – | 75% | CN(Cc1cc(C(F)(F)F)cc(C(F)(F)F)c1)C(=O)c1c(CO)nc2ccccc2c1-c1ccccc1 | – |
| 0.0017 nM | 100% | NCc1nc2ccccc2c(-c2ccccc2)c1C(=O)NCc1cc(C(F)(F)F)cc(C(F)(F)F)c1 | – |
| 17 nM | 100% | CC(C)(C)[Si](C)(C)OCc1nc2ccccc2c(-c2ccccc2)c1C(=O)NCc1cc(C(F)(F)F)cc(C(F)(F)F)c1 | – |
| 11 nM | 100% | COCc1nc2ccccc2c(-c2ccccc2)c1C(=O)N(C)Cc1cc(C(F)(F)F)cc(C(F)(F)F)c1 | – |
| > 1000 nM | – | O=C(NCc1cc(C(F)(F)F)cc(C(F)(F)F)c1)c1c(CN2C(=O)c3ccccc3C2=O)nc2ccccc2c1-c1ccccc1 | – |
| 180 nM | 71% | CN(Cc1ccccc1)Cc1nc2ccccc2c(-c2ccccc2)c1C(=O)NCc1cc(C(F)(F)F)cc(C(F)(F)F)c1 | – |
| 52 nM | 100% | CN(Cc1cc(C(F)(F)F)cc(C(F)(F)F)c1)C(=O)c1c(CBr)nc2ccccc2c1-c1ccccc1 | – |
| 0.0001 nM | 100% | O=C(NCc1cc(C(F)(F)F)cc(C(F)(F)F)c1)c1c(CO)nc2ccccc2c1-c1ccccc1 | Concentration (Endothelial cell [4]): 100 nM; Concentration (Endothelial cell [5]): 1000 nM; Concentration (Endothelial cell [6]): 0.1 nM |
| > 1000 nM | – | O=C(NCc1cc(C(F)(F)F)cc(C(F)(F)F)c1)c1cnc2ccccc2c1-c1ccccc1 | – |
| 0.01 nM | 71% | O=C(NCc1cc(C(F)(F)F)cc(C(F)(F)F)c1)c1c(CBr)nc2ccccc2c1-c1ccccc1 | – |
| 0.011 nM | 82% | CNCc1nc2ccccc2c(-c2ccccc2)c1C(=O)NCc1cc(C(F)(F)F)cc(C(F)(F)F)c1 | – |
| 9 nM | 100% | CN(Cc1cc(C(F)(F)F)cc(C(F)(F)F)c1)C(=O)c1c(CN)nc2ccccc2c1-c1ccccc1 | – |

| Compound | IC50 (Substance-P receptor [1]) | Binding (Substance-P receptor [2]) | other results |
| --- | --- | --- | --- |
| Ic1ccccc1CN[C@@H]1C2CCN(CC2)[C@@H]1C(c1ccccc1)c1ccccc1 | 1.6 nM | 100% | – |
